# Article PMC2990756, “Quantitative High-Throughput Screening Identifies 8-Hydroxyquinolines as Cell-Active Histone Demethylase Inhibitors” (PLoS ONE, 2010)
# Where two headings read alike, the source gives them in different places.
# Legend:
# Format in all cases: biochemical
# [1] = biological target: T1, formaldehyde dehydrogenase (FDH) (Pseudomonas putida, UniProt P46154); test: FDH coupling enzyme counterscreen
# T1 construct: purchased Sigma-Aldrich
# Excerpt: Dimethylsulfoxide certified ACS grade (DMSO) was from Fisher, Inc. HEPES buffer was obtained from Gibco. […] Black solid-bottom 1,536-well assay plates were from Greiner Bio-One (Monroe, NC).
# JMJD2E (KDM4E) = biological target: T2, JMJD2E (KDM4E) (Homo sapiens, UniProt B2RXH2); test: qHTS fluorescence FDH-coupled JMJD2E demethylase assay
# T2 construct: The catalytic domain of human JMJD2E (residues 1–337); His6 (N); made in house; host or cells: E. coli
# T2 sequence (B2RXH2 1-337): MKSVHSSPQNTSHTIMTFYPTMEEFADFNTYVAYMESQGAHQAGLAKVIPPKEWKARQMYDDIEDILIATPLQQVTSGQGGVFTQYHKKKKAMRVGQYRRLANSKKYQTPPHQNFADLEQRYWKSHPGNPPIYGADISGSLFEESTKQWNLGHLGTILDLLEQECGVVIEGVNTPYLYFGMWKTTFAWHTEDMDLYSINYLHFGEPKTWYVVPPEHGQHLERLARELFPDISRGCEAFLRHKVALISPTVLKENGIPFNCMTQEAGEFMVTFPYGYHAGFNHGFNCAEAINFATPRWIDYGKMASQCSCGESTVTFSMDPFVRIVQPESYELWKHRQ
# Excerpt: The oxidation of formaldehyde is coupled to the reduction of NAD^+ to NADH, which is monitored by fluorescence spectroscopy. […] To this end, initial screening hits were filtered by a combination of cheminformatics (to exclude low-confidence inhibitors and autofluorescent false positives), counterscreening against the coupled-assay component formaldehyde dehydrogenase (FDH), and orthogonal direct detection of inhibition of demethylation by mass spectrometry ( Figure 1 ).
# Reactions were initiated with 1 µL addition of peptide substrate solution containing final concentrations of 10 µM FAS, 50 µM 2OG, 0.25 U/mL FDH, 0.25 mM NAD^+, and 50 µM peptide substrate (ARK(me3)STGGK). A ViewLux imager (PerkinElmer, Waltham, MA) was used to measure NADH fluorescence (λex 340 nm, λem 450 nm) immediately after substrate addition and following 30 min incubation at room temperature. To record any systematic drifts in assay behavior (signal window and noise), assay plates containing no library compounds but only DMSO as a vehicle control were tested periodically (every ∼60 plates) throughout the screen.
# Data were normalized to the basal response (0% activity) in the absence of enzyme and the maximal response (100% activity) in the absence of compound. Using the Hill equation, dose-response curves and IC50 values were automatically generated for each compound tested with software developed internally (www.ncgc.nih.gov/pub/openhts/curvefit/). […] The initial well fluorescence (first kinetic read) associated with each sample was stored in a database and used in the cheminformatics analysis to identify autofluorescent compounds interfering with the assay signal.
# JMJD2E = biological target: T3, JMJD2E (Homo sapiens, UniProt B2RXH2); test: JMJD2E FDH-coupled assay under low and high iron conditions (iron chelation profile); parameters: The catalytic domain of human JMJD2E (residues 1–337); His6 (N); made in house; host or cells: E. coli; conditions: for IC50: unit not in table, from Figure 2
# T3 sequence (B2RXH2 1-337): T2 sequence (B2RXH2 1-337)
# Description: The prioritized compounds were also evaluated in the screening assay using two different ferrous ion concentrations (termed high iron and low iron, respectively), in order to assess their propensity for iron chelation.
# The ratio of IC50 values under high iron to low iron was calculated for each compound.
# [2] = Table S1, unit not in table, from Figure 2, read-out: qHTS Data: jmjd2e IC50
# [3] = Table S1, FDH counterscreen, unit not in table, from Figure 2, read-out: qHTS Data: jmjd2e fdh IC50
# [4] = Table S1, high iron, head says 20 µM FAS, read-out: qHTS Data: jmjd2e fas20um IC50
# [5] = Table S1, low iron 2.5 µM FAS, read-out: qHTS Data: jmjd2e fas2.5um IC50
# [6] = Figure 3, substituted 8-hydroxyquinolines against JMJD2E, read-out: IC50 /μM (qHTS IC50, FDH-coupled assay)
# T1 sequence (P46154 whole entry): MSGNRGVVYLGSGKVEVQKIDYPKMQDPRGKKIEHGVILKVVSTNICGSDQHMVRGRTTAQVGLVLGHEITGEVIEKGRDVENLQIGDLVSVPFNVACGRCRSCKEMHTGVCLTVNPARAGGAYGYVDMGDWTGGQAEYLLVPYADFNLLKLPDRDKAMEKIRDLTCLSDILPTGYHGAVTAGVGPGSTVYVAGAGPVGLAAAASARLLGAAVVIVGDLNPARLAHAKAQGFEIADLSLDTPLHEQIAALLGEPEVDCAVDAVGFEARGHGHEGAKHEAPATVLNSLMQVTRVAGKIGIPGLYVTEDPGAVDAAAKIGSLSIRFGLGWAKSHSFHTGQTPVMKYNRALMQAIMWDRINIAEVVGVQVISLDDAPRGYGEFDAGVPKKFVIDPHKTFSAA
smiles,measurement,setting,value
CC1=C(C(N)=O)C(c2ccc3c(c2)OCO3)n2nc(-c3cccc(C)c3)nc2N1 (stereo not shown) [compound 4245376],qHTS Data: jmjd2e fdh CurveClass,"[1]; Table S1, FDH counterscreen",Inactive
CN(C)C1C(=O)C(C(N)=O)=C(O)[C@@]2(O)C(=O)C3=C(O)c4c(O)cccc4[C@@](C)(O)C3CC12.Cl (stereo partly shown) [compound 26748266],IC50,JMJD2E (KDM4E); [2],2.51 µM
same,qHTS Data: jmjd2e fdh CurveClass,"[1]; Table S1, FDH counterscreen",Poor quality curve
same,IC50,[1]; [3],15.8 µM
same,IC50,JMJD2E; [4],1.78 µM
same,IC50,JMJD2E; [5],15.8 µM
O=c1c(O)c(-c2ccc(O)c(O)c2)oc2c(O)c(O)cc(O)c12 [compound 26750048],IC50,JMJD2E (KDM4E); [2],2.82 µM
same,qHTS Data: jmjd2e fdh CurveClass,"[1]; Table S1, FDH counterscreen",Inactive
same,qHTS Data: jmjd2e fas20um CurveClass,"JMJD2E; Table S1, high iron",Inactive
same,IC50,JMJD2E; [5],1.41 µM
O=c1c(O)cccc2cc(O)c(O)c(O)c12 [compound 26665710],IC50,JMJD2E (KDM4E); [2],7.94 µM
same,qHTS Data: jmjd2e fdh CurveClass,"[1]; Table S1, FDH counterscreen",Poor quality curve
same,IC50,[1]; [3],6.31 µM
same,IC50,JMJD2E; [4],12.6 µM
same,IC50,JMJD2E; [5],2.24 µM
Oc1cccc2ccc(/C=C/c3c(F)cccc3Cl)nc12 [compound 24793399],IC50,JMJD2E (KDM4E); [6],28 µM
O=c1cc(O)c2sc(Nc3ccc(F)cc3)nc2[nH]1 [compound 17505973],qHTS Data: jmjd2e fdh CurveClass,"[1]; Table S1, FDH counterscreen",Inactive
C[C@@](N)(Cc1ccc(O)c(O)c1)C(=O)O [compound 11112415],IC50,JMJD2E (KDM4E); [2],4.47 µM
same,qHTS Data: jmjd2e fdh CurveClass,"[1]; Table S1, FDH counterscreen",Inactive
same,IC50,JMJD2E; [4],2 µM
same,IC50,JMJD2E; [5],4.47 µM
CN(C)CCCNCC(=O)Nc1ccc(Cl)cc1C(=O)c1ccccc1.O=C(O)C(=O)O [compound 24839839],qHTS Data: jmjd2e fdh CurveClass,"[1]; Table S1, FDH counterscreen",Inactive
O=c1c(-c2cc(O)c(O)c(O)c2)coc2cc(O)c(O)c(O)c12 [compound 26749510],IC50,JMJD2E (KDM4E); [2],2.82 µM
same,IC50,[1]; [3],3.98 µM
same,IC50,JMJD2E; [4],14.1 µM
same,IC50,JMJD2E; [5],1 µM
OCc1ccnc2c(O)cccc12 [compound 857270],IC50,JMJD2E (KDM4E); [6],8.9 µM
C/C(Cn1nnc([N+](=O)[O-])n1)=N\NC(=O)c1ccc(O)cc1O [compound 22414653],qHTS Data: jmjd2e fdh CurveClass,"[1]; Table S1, FDH counterscreen",Inactive
S=c1nc(C2COc3ccccc3O2)[nH][nH]1 (stereo not shown) [compound 24801312],qHTS Data: jmjd2e fdh CurveClass,"[1]; Table S1, FDH counterscreen",-1.3
same,IC50,[1]; [3],15.8 µM
"O=C(O)c1ccnc2c(O)cccc12 [SID 85736397, 4-carboxy-8-hydroxyquinoline]",IC50,"JMJD2E (KDM4E); FDH coupled assay, read-out: IC50 against JMJD2E",2 µM
same,IC50,JMJD2E (KDM4E); [6],2.0 µM
CC1(OC(=O)CCc2ccccc2)C(=O)C=C2C=C(c3ccc(C#N)cc3)N(C3CC3)C=C2C1=O (stereo not shown) [SID 26725552],IC50,"[1]; Figure 2, 0.025 U/mL FDH, 10 µM formaldehyde, read-out: IC50 values in μM, FDH",> 57 µM
Cc1nc(NC(=O)c2oc3ccccc3c2C)sc1C(=O)N(C)C [compound 4262050],qHTS Data: jmjd2e fdh CurveClass,"[1]; Table S1, FDH counterscreen",Poor quality curve
CC1(OC(=O)C2CCCC2)C(=O)C=C2C=C(c3ccsc3)N(CCc3ccccn3)C=C2C1=O (stereo not shown) [compound 26725362],qHTS Data: jmjd2e fdh CurveClass,"[1]; Table S1, FDH counterscreen",Inactive
O=C(Cc1ccccc1)N1CCN(Cc2ccccn2)CC1 [SID 4263376],IC50,"[1]; IC50 values in μM, FDH, Figure 2, 0.025 U/mL FDH, 10 µM formaldehyde",> 57 µM
FC(F)(F)c1ccccc1CN1CCN(C2CCCCCC2)CC1.O=C(O)C(=O)O [compound 22403162],qHTS Data: jmjd2e fdh CurveClass,"[1]; Table S1, FDH counterscreen",Inactive
O=C(O)C(=O)O.O=C(c1ccccc1)N1CCN(CC2CC=CCC2)CC1 (stereo not shown) [compound 844960],qHTS Data: jmjd2e fdh CurveClass,"[1]; Table S1, FDH counterscreen",Inconclusive
same,IC50,[1]; [3],5.01 µM
CC1(OC(=O)CCc2ccccc2)C(=O)C=C2C=C(c3ccc(C#N)cc3)N(C3CC3)C=C2C1=O (stereo not shown) [compound 26725552],qHTS Data: jmjd2e fdh CurveClass,"[1]; Table S1, FDH counterscreen",Inactive
"O=C(O)CN(CCN(CC(=O)O)CC(=O)O)CC(=O)O [EDTA, reference compound]",ratio of IC50 values under high iron to low iron,JMJD2E; 25 and 2.5 µM Fe(II),5.9
O=C(CC1Sc2ncnn2C1=O)Nc1ccccc1 (stereo not shown) [compound 14735867],IC50,[1]; [3],0.28 µM
Cc1ccc(NC2=CC(=O)CC(C)(C)C2)c(N)c1 [compound 849268],qHTS Data: jmjd2e fdh CurveClass,"[1]; Table S1, FDH counterscreen",Inactive
Cc1cccc(N2C(=O)CC(Sc3ncn[nH]3)C2=O)c1 (stereo not shown) [compound 24809940],IC50,[1]; [3],0.28 µM
Oc1c(CN2CCCC2)cc(COCc2ccccc2)c2cccnc12 [compound 85736312],IC50,JMJD2E (KDM4E); [6],5 µM
CCC(=O)c1ccccc1OCCN1CCN(Cc2ccccc2)CC1.O=C(O)C(=O)O [compound 24782649],qHTS Data: jmjd2e fdh CurveClass,"[1]; Table S1, FDH counterscreen",Inactive
CC(C)NC[C@H](O)c1ccc(O)c(O)c1 [compound 11112573],qHTS Data: jmjd2e fdh CurveClass,"[1]; Table S1, FDH counterscreen",Inactive
O=C(NNC(=O)c1ccc(O)cc1O)c1ccc(Cl)cc1 [compound 17414133],qHTS Data: jmjd2e fdh CurveClass,"[1]; Table S1, FDH counterscreen",Inactive
O=C(O)C(=O)O.S=C(NCC1CCCO1)N1CCN(Cc2ccccc2)CC1 (stereo not shown) [compound 24807070],qHTS Data: jmjd2e fdh CurveClass,"[1]; Table S1, FDH counterscreen",Inactive
